{"source": "patent US5364869A", "about": "“Heterocycle-substituted benzyaminopyridine angiotensin II receptor antagonists” (Abbott Laboratories, priority 1993, dated 1994)", "key": {"angiotensin II receptor": {"target": "T1, angiotensin II receptor (Oryctolagus cuniculus, UniProt P34976)", "T1 construct": "Main abdominal aortas were removed and placed in Krebs-Henseleit buffer; from tissue; host or cells: abdominal aorta rings of female New Zealand White rabbits", "T1 sequence (P34976 1-359)": "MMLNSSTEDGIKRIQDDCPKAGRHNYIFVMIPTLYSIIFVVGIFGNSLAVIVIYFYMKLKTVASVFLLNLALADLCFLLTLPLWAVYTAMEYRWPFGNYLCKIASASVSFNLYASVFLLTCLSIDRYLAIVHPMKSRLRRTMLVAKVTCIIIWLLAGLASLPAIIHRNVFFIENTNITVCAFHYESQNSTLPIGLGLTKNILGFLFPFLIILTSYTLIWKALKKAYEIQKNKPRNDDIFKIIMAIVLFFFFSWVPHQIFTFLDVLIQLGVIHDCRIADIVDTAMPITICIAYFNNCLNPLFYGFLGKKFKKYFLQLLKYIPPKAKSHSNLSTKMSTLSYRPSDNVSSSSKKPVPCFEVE", "assay": "Antagonism of contraction of rabbit aorta (angiotensin II functional assay, isolated rabbit aorta)", "design": "species or system rabbit (female New Zealand White)", "details": "Schild analysis; for Kb: pA2 = negative logarithm of [A]2", "excerpt": "ANGIOTENSIN II FUNCTIONAL ASSAY\nAntagonism of Contraction of Rabbit Aorta\nThe protocol reported by A. T. Chiu and P. Timmermans (P. C. Wong, et al. Hypertension, 13, 489-497 (1989)) was followed with a few modifications. Female New Zealand White rabbits weighing 2-5 kg were sedated with carbon dioxide and then sacrificed. Main abdominal aortas were removed and placed in Krebs-Henseleit buffer at room temperature.\nThe tissues were cleaned of extraneous connective tissue, cut into 3 mm rings, and suspended within a 10 mL tissue bath. All dilutions of peptide preparations were made with 0.3% aqueous BSA. The tissues were primed with 55 mM potassium chloride. Tissues were pre-loaded with 1 g of tension. Tension was recorded on a model 7 Grass polygraph using FT03 transducers. At the end of the equilibrium period, a control cumulative concentration-contractile response curve for angiotensin II (A II: 1×10^-10 -10^-8 M) was obtained. The tissue was washed several times until the baseline was reached. Forty five minutes later, test compound (antagonist) was added and the tissue was incubated for 30 minutes. The concentration-response curve for A II was then repeated in the presence of the test compound. One dose of antagonist was tested per tissue only. For single dose shift experiments a dose of 1 mM of test compound was used, for a full pA2 experiment multiple doses were used depending upon the potency of the antagonist.\nAll responses to the control agonist were calculated as a percentage of the maximum response. These points in duplicate were plotted and analyzed according to standard Schild analysis (H. O. Schild, British J Pharmacology and Chemotherapy, 2, 189-206 (1947). The pA2 values calculated for the compounds of the invention are shown in Table 1. The pA2 value is the negative logarithm of the [A]2 value. [A]2 is the concentration of antagonist which necessitates doubling the agonist concentration in order to achieve the agonist effect which was measured in the absence of antagonist.\nThe pA2 value, therefore is a measure of the effectiveness of the compound as an antagonist."}, "[1]": {"system": "hypertension and congestive heart failure", "details": "background; cited from earlier work"}, "angiotensin II": {"system": "angiotensin II", "details": "background; cited from earlier work"}, "[2]": {"details": "background; cited from earlier work"}, "[3]": {"details": "after intravenous administration; due to angiotensin receptor agonist activity; cited from earlier work"}}, "data": [{"smiles": "CCCN(Cc1ccc(OC(C(=O)O)c2ccccc2)cc1)c1nc(C)ncc1C(=O)O", "note": "(stereo not drawn) [Example 1, 4-[N-4-(1-Carboxy-1-phenylmethoxy)benzyl-N-propyl]amino-2-methylpyrimidine-5-carboxylic acid]", "values": [{"measurement": "Kb", "setting": "angiotensin II receptor", "result": 589, "unit": "nM"}]}, {"smiles": "CCCN(Cc1ccc2c(Br)c(-c3ccccc3-c3nn[nH]n3)sc2c1)c1ncccc1C(=O)O", "note": "[Example 3]", "values": [{"measurement": "pA2", "setting": "angiotensin II receptor; pA2 = negative logarithm of [A]2, 30 min", "result": 7.53}]}, {"smiles": "CCCN(Cc1ccc(-n2cc(Br)cc2-c2nn[nH]n2)cc1)c1ncccc1C(=O)O", "note": "[Example 4H, 2-{N-Propyl-N-[(1-[3-bromo-5-(1H-tetrazol-5-yl)pyrrole-1-yl]phenyl-4-yl)methyl]amino}pyridine-3-carboxylic acid]", "values": [{"measurement": "Kb", "setting": "angiotensin II receptor", "result": 0.132, "unit": "nM"}]}, {"smiles": "C[C@H](CS)C(=O)N1CCC[C@H]1C(=O)O", "note": "[captopril]", "values": [{"measurement": "clinical efficacy in treating hypertension and congestive heart failure (in words)", "setting": "[1]", "result": "have clinical efficacy in treating hypertension and congestive heart failure"}]}, {"smiles": "CCOC(=O)[C@H](CCc1ccccc1)N[C@@H](C)C(=O)N1CCC[C@H]1C(=O)O", "note": "[enalapril]", "values": [{"measurement": "clinical efficacy in treating hypertension and congestive heart failure (in words)", "setting": "[1]", "result": "have clinical efficacy in treating hypertension and congestive heart failure"}]}, {"smiles": "COc1ccc(C[C@H](NC(=O)CC(C)(C)N)C(=O)N[C@@H](Cc2cnc[nH]2)C(=O)N[C@@H](CC2CCCCC2)[C@@H](O)[C@@H](O)CC(C)C)cc1", "note": "[enalkiren]", "values": [{"measurement": "clinical efficacy in treating hypertension and congestive heart failure (in words)", "setting": "[1]", "result": "have clinical efficacy in treating hypertension and congestive heart failure"}]}, {"smiles": "CNCC(=O)N[C@@H](CCCN=C(N)N)C(=O)N[C@H](C(=O)N[C@@H](Cc1ccc(O)cc1)C(=O)N[C@H](C(=O)N[C@@H](Cc1cnc[nH]1)C(=O)N1CCC[C@H]1C(=O)N[C@@H](C)C(=O)O)C(C)C)C(C)C", "note": "[saralasin, [Sar^1, Ala^8] angiotensin II]", "values": [{"measurement": "antagonist of the actions of angiotensin II (in words)", "setting": "angiotensin II", "result": "potent antagonist of the actions of angiotensin II"}, {"measurement": "oral bioavailability (in words)", "setting": "[2]", "result": "very poor oral bioavailability"}, {"measurement": "initial blood pressure change (in words)", "setting": "[3]", "result": "initial increase in blood pressure after intravenous administration"}]}]}
